Experimental data: patent US4258180A, “C6-Modified cyclodextrin sulfate salts as complement inhibitors” (American Cyanamid Company, priority 1979, dated 1981)
Where a name gives a salt, the structure may show the parent alone.

How the values were obtained:
Type in all cases: biochemical
activated human C1 = activated human C1 (Homo sapiens, UniProt P09871); experiment: Test Code 026 (C1 inhibitor); settings: serial dilution assay, twofold dilutions; higher well number indicates higher activity
Text: (§1) An active inhibitor protects C2 from C1 and C4; (ii) Test Code 035 (C3-C9 inhibitor)--This test determines the ability of the late components of human complement (C3-C9) to lyse EAC 142 in the presence of appropriate dilutions of the test compound. An active inhibitor protects EAC 142 from lysis by human C3-C9; (iii) Test Code 036 (C-Shunt inhibitor)--In this test human erythrocytes rendered fragile are lysed in autologous serum via the shunt pathway activated by cobra venom factor in the presence of appropriate dilutions of the test compound. Inhibition of the shunt pathway results in failure of lysis; (iv) Forssman Vasculitis Test--Here, the well known complement dependent lesion, Forssman Vasculitis, is produced in guinea pigs by intradermal injection of rabbit anti-Forssman antiserum. The lesion is measured in terms of diameter, edema and hemorrhage and the extent to which a combined index of these is inhibited by prior intraperitoneal injection of the test compound at 200 mg/kg is then reported, unless otherwise stated; (v) Forssman Shock Test--Lethal shock is produced in guinea pigs by an i.v. injection of anti-Forssman antiserum and the harmonic mean death time of treated guinea pigs is compared with that of simultaneous controls; (vi) Complement Level Reduction Test--In this test, the above dosed guinea pigs, or others, are bled for serum and the complement level is determined in undiluted serum by the capillary tube method of U.S. Pat. No. 3,876,376 and compared to undosed control guinea pigs; and (vii) Cap 50 Test--Here, appropriate amounts of the test compound are added to a pool of guinea pig serum in vitro, after which the undiluted serum capillary tube assay referred to above is run. The concentration of compound inhibiting 50% is reported.

[1] = tested on: late components of human complement (C3-C9); experiment: Test Code 035 (C3-C9 inhibitor), lysis of EAC 142; settings: serial dilution assay, twofold dilutions; higher well number indicates higher activity; N = Negative
Text: as §1

shunt pathway = experiment: Test Code 036 (C-Shunt inhibitor), lysis of fragile human erythrocytes in autologous serum, cobra venom factor; settings: serial dilution assay, twofold dilutions; higher well number indicates higher activity; N = Negative
Text: as §1

SMILES	026 Activity in wells (activated human C1)	035 Activity in wells [1]	036 Activity in wells (shunt pathway)
[N-]=[N+]=NC[C@H]1O[C@@H]2O[C@H]3[C@H](OS(=O)(=O)O)[C@@H](OS(=O)(=O)O)[C@@H](O[C@H]4[C@H](OS(=O)(=O)O)[C@@H](OS(=O)(=O)O)[C@@H](O[C@H]5[C@H](OS(=O)(=O)O)[C@@H](OS(=O)(=O)O)[C@@H](O[C@H]6[C@H](OS(=O)(=O)O)[C@@H](OS(=O)(=O)O)[C@@H](O[C@H]7[C@H](OS(=O)(=O)O)[C@@H](OS(=O)(=O)O)[C@@H](O[C@H]1[C@H](OS(=O)(=O)O)[C@H]2OS(=O)(=O)O)O[C@@H]7CN=[N+]=[N-])O[C@@H]6CN=[N+]=[N-])O[C@@H]5CN=[N+]=[N-])O[C@@H]4CN=[N+]=[N-])O[C@@H]3CN=[N+]=[N-] [α-Cyclo[6-azido-6-deoxy]dextrin poly(H-sulfate)poly-sodium s] [6,6',6",6'",6"",6'""-Hexaazido-6,6',6",6'",6"",6'""-hexadeoxy-α-cyclodextrin, dodecakis(H-sulfate), dodecasodium salt]	7 wells	1 wells	4 wells
[N-]=[N+]=NC[C@H]1O[C@@H]2O[C@H]3[C@H](OS(=O)(=O)O)[C@@H](OS(=O)(=O)O)[C@@H](O[C@H]4[C@H](OS(=O)(=O)O)[C@@H](OS(=O)(=O)O)[C@@H](O[C@H]5[C@H](OS(=O)(=O)O)[C@@H](OS(=O)(=O)O)[C@@H](O[C@H]6[C@H](OS(=O)(=O)O)[C@@H](OS(=O)(=O)O)[C@@H](O[C@H]7[C@H](OS(=O)(=O)O)[C@@H](OS(=O)(=O)O)[C@@H](O[C@H]1[C@H](OS(=O)(=O)O)[C@H]2OS(=O)(=O)O)O[C@@H]7CN=[N+]=[N-])O[C@@H]6CN=[N+]=[N-])O[C@@H]5CN=[N+]=[N-])O[C@@H]4CN=[N+]=[N-])O[C@@H]3CN=[N+]=[N-] [α-Cyclo[6-azido-6-deoxy]dextrin poly(H-sulfate)poly-trimethy] [6,6',6",6'",6"",6'""-Hexaazido-6,6',6",6'",6"",6'""-hexadeoxy-α-cyclodextrin, dodecakis(H-sulfate), dodecasalt with trimethylamine]	2 wells	N	N
O=S(=O)(O)O[C@@H]1[C@@H](OS(=O)(=O)O)[C@H]2O[C@H]3[C@H](OS(=O)(=O)O)[C@@H](OS(=O)(=O)O)[C@@H](O[C@H]4[C@H](OS(=O)(=O)O)[C@@H](OS(=O)(=O)O)[C@@H](O[C@H]5[C@H](OS(=O)(=O)O)[C@@H](OS(=O)(=O)O)[C@@H](O[C@H]6[C@H](OS(=O)(=O)O)[C@@H](OS(=O)(=O)O)[C@@H](O[C@H]7[C@H](OS(=O)(=O)O)[C@@H](OS(=O)(=O)O)[C@@H](O[C@@H]1[C@@H](CBr)O2)O[C@@H]7CBr)O[C@@H]6CBr)O[C@@H]5CBr)O[C@@H]4CBr)O[C@@H]3CBr [α-Cyclo[6-bromo-6-deoxy]dextrin poly (H-sulfate)poly-sodium ] [6,6',6",6'",6"",6'""-Hexabromo-6,6',6",6'",6"",6'""-hexadeoxy-α-cyclodextrin dodecakis(H-sulfate), dodecasodium salt]	6 wells	5 wells	4 wells
O=S(=O)(O)O[C@@H]1[C@@H](OS(=O)(=O)O)[C@H]2O[C@H]3[C@H](OS(=O)(=O)O)[C@@H](OS(=O)(=O)O)[C@@H](O[C@H]4[C@H](OS(=O)(=O)O)[C@@H](OS(=O)(=O)O)[C@@H](O[C@H]5[C@H](OS(=O)(=O)O)[C@@H](OS(=O)(=O)O)[C@@H](O[C@H]6[C@H](OS(=O)(=O)O)[C@@H](OS(=O)(=O)O)[C@@H](O[C@H]7[C@H](OS(=O)(=O)O)[C@@H](OS(=O)(=O)O)[C@@H](O[C@@H]1[C@@H](CBr)O2)O[C@@H]7CBr)O[C@@H]6CBr)O[C@@H]5CBr)O[C@@H]4CBr)O[C@@H]3CBr [α-Cyclo[6-bromo-6-deoxy]dextrin poly(H-sulfate)poly-trimethy] [α-Cyclo[6-bromo-6-deoxy]dextrin poly(H-sulfate)poly-trimethylamine salt]	2 wells	2 wells	N
N#CSC[C@H]1O[C@@H]2O[C@H]3[C@H](OS(=O)(=O)O)[C@@H](OS(=O)(=O)O)[C@@H](O[C@H]4[C@H](OS(=O)(=O)O)[C@@H](OS(=O)(=O)O)[C@@H](O[C@H]5[C@H](OS(=O)(=O)O)[C@@H](OS(=O)(=O)O)[C@@H](O[C@H]6[C@H](OS(=O)(=O)O)[C@@H](OS(=O)(=O)O)[C@@H](O[C@H]7[C@H](OS(=O)(=O)O)[C@@H](OS(=O)(=O)O)[C@@H](O[C@H]1[C@H](OS(=O)(=O)O)[C@H]2OS(=O)(=O)O)O[C@@H]7CSC#N)O[C@@H]6CSC#N)O[C@@H]5CSC#N)O[C@@H]4CSC#N)O[C@@H]3CSC#N [α-Cyclo[6-deoxy-6-thiocyanato]dextrin poly(H-sulfate)poly-so] [6,6',6",6'",6"",6'""-Hexadeoxy-6,6',6",6'",6"",6'""-hexathiocyanato-α-cyclodextrin, dodecakis(H-sulfate), dodecasodium salt]	7 wells	2 wells	4 wells
N#CSC[C@H]1O[C@@H]2O[C@H]3[C@H](OS(=O)(=O)O)[C@@H](OS(=O)(=O)O)[C@@H](O[C@H]4[C@H](OS(=O)(=O)O)[C@@H](OS(=O)(=O)O)[C@@H](O[C@H]5[C@H](OS(=O)(=O)O)[C@@H](OS(=O)(=O)O)[C@@H](O[C@H]6[C@H](OS(=O)(=O)O)[C@@H](OS(=O)(=O)O)[C@@H](O[C@H]7[C@H](OS(=O)(=O)O)[C@@H](OS(=O)(=O)O)[C@@H](O[C@H]1[C@H](OS(=O)(=O)O)[C@H]2OS(=O)(=O)O)O[C@@H]7CSC#N)O[C@@H]6CSC#N)O[C@@H]5CSC#N)O[C@@H]4CSC#N)O[C@@H]3CSC#N [α-Cyclo[6-deoxy-6-thiocyanato]dextrin poly(H-sulfate)poly-tr] [6,6',6",6'",6"",6'""-Hexadeoxy-6,6',6",6'",6"",6'""-hexathiocyanato-α-cyclodextrin, dodecakis(H-sulfate), dodecasalt with trimethylamine]	1 wells	N	N
C[C@H]1O[C@@H]2O[C@H]3[C@H](OS(=O)(=O)O)[C@@H](OS(=O)(=O)O)[C@@H](O[C@H]4[C@H](OS(=O)(=O)O)[C@@H](OS(=O)(=O)O)[C@@H](O[C@H]5[C@H](OS(=O)(=O)O)[C@@H](OS(=O)(=O)O)[C@@H](O[C@H]6[C@H](OS(=O)(=O)O)[C@@H](OS(=O)(=O)O)[C@@H](O[C@H]7[C@H](OS(=O)(=O)O)[C@@H](OS(=O)(=O)O)[C@@H](O[C@H]1[C@H](OS(=O)(=O)O)[C@H]2OS(=O)(=O)O)O[C@@H]7C)O[C@@H]6C)O[C@@H]5C)O[C@@H]4C)O[C@@H]3C [α-Cyclo[6-deoxy]dextrin poly(H-sulfate)poly-sodium salt] [6,6',6",6'",6"",6'""-Hexadeoxy-α-cyclodextrin, dodecakis(H-sulfate), dodecasodium salt]	8 wells	1 wells	4 wells
C[C@H]1O[C@@H]2O[C@H]3[C@H](OS(=O)(=O)O)[C@@H](OS(=O)(=O)O)[C@@H](O[C@H]4[C@H](OS(=O)(=O)O)[C@@H](OS(=O)(=O)O)[C@@H](O[C@H]5[C@H](OS(=O)(=O)O)[C@@H](OS(=O)(=O)O)[C@@H](O[C@H]6[C@H](OS(=O)(=O)O)[C@@H](OS(=O)(=O)O)[C@@H](O[C@H]7[C@H](OS(=O)(=O)O)[C@@H](OS(=O)(=O)O)[C@@H](O[C@H]1[C@H](OS(=O)(=O)O)[C@H]2OS(=O)(=O)O)O[C@@H]7C)O[C@@H]6C)O[C@@H]5C)O[C@@H]4C)O[C@@H]3C [α-Cyclo[6-deoxy]dextrin poly(H-sulfate)poly-trimethylamine s] [6,6',6",6'",6"",6'""-Hexadeoxy-α-cyclodextrin, dodecakis(H-sulfate), dodecasalt with trimethylamine]	7 wells	N	3 wells
